From US20060171988A1, “Method of treatment using foams as artificial lymph nodes” (priority 2005, published 2006)
“Also recorded” adds a separate entry of the source.

Assays:
[1] = tested on: ovalbumin-transfected E.G7 mouse tumor cells; assay: 51Cr release assay (CTL activity) with T cells from immunized mice, E.G7 targets; type: in vivo
Procedure: (§1) Immunization: On day 9 after surgery, wounds had generally healed and healthy mice were used for immunization with 30 μg peptide per mouse. Depending on the experiment, CpG deoxyoligonucleotide 1668 (5 -100 pmole/mouse), mouse GM-CSF (10^3 units/mouse) and Titermax classic were used as adjuvants. Generally, injection volume was adjusted to 200 μl per mouse with sterile PBS. When applying Titermax classic, all other injection components were mixed and then added in small portions to an equal volume of Titermax classic. After each addition, the vial was rigorously mixed to obtain a white, semi-fluid water-in-oil suspension. Injection was either performed subcutaneously into the nape of the neck, the base of tail and the footpad, using a volume ratio of 3:1:1, respectively, or directly into the centre of the right foam implantate.
(§2) T-cell culture and ^51Cr release assay: On day 9 after immunization, mice were sacrificed and 2*10^7 splenocytes were stimulated in vitro for 5 days using 10^7 irradiated (30 Gy) splenocytes from untreated C57BL/6 mice as feeder cells and 5 ng/ml peptide. Cytotoxic T lymphocyte (CTL) activity was measured in a standard ^51Cr release assay (Brunner et al., 1968). Briefly, stimulated cells were harvested, counted and plated out in a series of […] in a round-bottom 96-well plate. 10^6 EL-4 cells (C57BL/6-derived T cell lymphoma; ATCC no. TIB-39) were loaded with 50 pmole peptide and [^51Cr] Na2CrO4-labeled at 37° C. for 30 min. After intense washing with cell culture medium, 10^4 of these cells were added to each well of the 96-well plate as targets. ^51Cr release was measured after 4 h incubation at 37° C./5% (v/v) CO2.

[2] = tested on: EL-4 cells; assay: 51Cr release assay (CTL activity) with T cells from immunized mice, EL-4 targets; type: in vivo, mouse
Procedure: as §1, with “Injection was either performed subcutaneously into the nape of the neck, the base of tail and the footpad, using a volume ratio of 3:1:1, respectively, or directly into the centre of the right foam implantate.” left out
as §2, with “10^6 EL-4 cells (C57BL/6-derived T cell lymphoma; ATCC no. TIB-39) were loaded with 50 pmole peptide and [^51Cr] Na2CrO4-labeled at 37° C. for 30 min.” left out

[3] = s.c. injection into the nape of the neck, peptide alone, T cells from spleen or lymph nodes of immunized C57BL/6 mice

Q: With “SIINFEKL (Ovalbumin-derived SIINFEKL peptide (amino acid 257-264)) [peptide derived from chicken ovalbumin (amino acid 257-264), model ligand of mouse MHC class I allele H2-Kb]” as the sequence, how does the “maximum lysis above unspecific background” value ([1]; peptide injected into s.c. implanted PVA foams, T cells from spleen) read?
A: approximately 45%

Q: What about the “lysis of ovalbumin-transfected E.G7 cells by T cells” value ([1]; peptide injected into s.c. implanted PVA foams, T cells from spleen or lymph node) of the same sequence?
A: able to lyse

Q: And the “immune response / recognition of E.G7 target cells by T cells” value [1, 3]?
A: Neither ovalbumin-transfected E.G7 mouse tumor cells of the H2-b haplotype, nor untransfected H2-b positive EL-4 mouse tumor cells are recognized; also recorded: did not lead to detectable immune responses

Q: And the “recognition of untransfected EL-4 target cells by T cells” value [2, 3]?
A: nor untransfected H2-b positive EL-4 mouse tumor cells were recognized

Q: Which “maximum lysis above unspecific background” value ([2]; peptide injected into s.c. implanted PVA foams, T cells from axillary and cervical lymph nodes, independent second experiment) does the source give for “ASNENMETM (peptide ASNENMETM derived from influenza nucleoprotein (amino acid 366-374)) [peptide derived from influenza nucleoprotein (amino acid 366-374)]” here?
A: 37%
